Measured values taken from patent US7566786B2, “Quinoline derivatives as phosphodiesterase inhibitors” (Glaxo Group Limited, priority 2003, dated 2009).
Where a name gives a salt, the structure may show the parent alone.

Columns and labels:
[1] = molecular target: T1, PDE4B (human recombinant) (Homo sapiens, UniProt Q07343); test: Inhibition of PDE4B activity: Radioactive Scintillation Proximity Assay (SPA); type: biochemical; details: SPA or FP format not given; for IC50: read-out: PDE4B mean pIC50 (converted)
T1 construct: made in house
T1 sequence (Q07343 1-564 isoform Q07343-2): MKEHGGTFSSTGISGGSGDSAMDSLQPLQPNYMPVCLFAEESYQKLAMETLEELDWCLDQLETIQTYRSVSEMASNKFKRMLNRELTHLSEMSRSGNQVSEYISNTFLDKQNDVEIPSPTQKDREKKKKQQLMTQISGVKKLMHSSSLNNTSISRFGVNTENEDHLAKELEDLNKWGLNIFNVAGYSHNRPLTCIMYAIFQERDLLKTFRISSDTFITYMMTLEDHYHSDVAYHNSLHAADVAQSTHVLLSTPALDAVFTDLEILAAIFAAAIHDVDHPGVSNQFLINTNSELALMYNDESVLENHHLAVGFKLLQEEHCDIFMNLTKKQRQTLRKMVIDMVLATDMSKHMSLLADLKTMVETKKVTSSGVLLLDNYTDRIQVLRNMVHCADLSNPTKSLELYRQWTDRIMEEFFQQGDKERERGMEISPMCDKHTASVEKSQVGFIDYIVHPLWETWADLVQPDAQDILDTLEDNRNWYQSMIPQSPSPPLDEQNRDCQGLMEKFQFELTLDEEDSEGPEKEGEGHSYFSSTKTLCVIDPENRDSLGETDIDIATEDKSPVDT
Description: Human recombinant PDE4B, in particular the 2B splice variant thereof (HSPDE4B2B), is disclosed in WO 94/20079 and also in M. M. McLaughlin et al., “A low Km, rolipram-sensitive, cAMP-specific phosphodiesterase from human brain: cloning and expression of cDNA, biochemical characterisation of recombinant protein, and tissue distribution of mRNA”, J. Biol. Chem., 1993, 268, 6470-6476. For example, in Example 1 of WO 94/20079, human recombinant PDE4B is described as being expressed in the PDE-deficient yeast Saccharomyces cerevisiae strain GL62, e.g. after induction by addition of 150 μM CuSO4, and 100,000×g supernatant fractions of yeast cell lysates are described for use in the harvesting of PDE4B enzyme.
(§1) 2. Inhibition of PDE3, PDE4B, PDE4D, PDE5 or PDE6 Activity: Radioactive Scintillation Proximity Assay (SPA)
(§2) The ability of compounds to inhibit catalytic activity at PDE4B or 4D (human recombinant), PDE3 (from bovine aorta), PDE5 (human recombinant) or PDE 6 (from bovine retina) was determined by Scintillation Proximity Assay (SPA) in 96-well format. Test compounds (preferably as a solution in DMSO, e.g. 2 microlitre (μl) volume) were preincubated at ambient temperature in Wallac Isoplates (code 1450-514) with PDE enzyme in 50 mM Tris-HCl buffer pH 7.5, 8.3 mM MgCl2, 1.7 mM EGTA, 0.05% (w/v) bovine serum albumin for 10-30 minutes. The enzyme concentration was adjusted so that no more than 20% hydrolysis of the substrate occurred in control wells without compound, during the incubation. For the PDE3, PDE4B and PDE4D assays [5′,8-^3H]adenosine 3′,5′-cyclic phosphate (Amersham Pharmacia Biotech, code TRK.559 or Amersham Biosciences UK Ltd, Pollards Wood, Chalfont St Giles, Buckinghamshire HP8 4SP, UK) was added to give 0.05 μCi per well and ˜10 nM final concentration. For the PDE5 and PDE6 assays [8-^3H]guanosine 3′,5′-cyclic phosphate (Amersham Pharmacia Biotech , code TRK.392) was added to give 0.05 μCi per well and ˜36 nM final concentration. Plates e.g. containing approx. 100 μl volume of assay mixture were mixed on an orbital shaker for 5 minutes and incubated at ambient temperature for 1 hour. Phosphodiesterase SPA beads (Amersham Pharmacia Biotech, code RPNQ 0150) suspended in buffer were added (˜1 mg per well) to terminate the assay. Plates were sealed and shaken and allowed to stand at ambient temperature for 35 minutes to 1 hour to allow the beads to settle. Bound radioactive product was measured using a WALLAC TRILUX 1450 Microbeta scintillation counter. […] Curves were analysed using
(§3) ActivityBase and XLfit (ID Business Solutions Limited, 2 Ocean Court, Surrey Research Park, Guildford, Surrey GU2 7QB, United Kingdom). Results were expressed as pIC50 values.

PDE5 (human recombinant) = PDE5 (human recombinant) (Homo sapiens, UniProt O76074); test: Inhibition of PDE5 activity: Radioactive Scintillation Proximity Assay (SPA); type: biochemical; details: read-out: PDE5 mean pIC50 (converted)
Description: Human recombinant PDE5 is disclosed in K. Loughney et al., “Isolation and characterisation of cDNAs encoding PDE5A, a human cGMP-binding, cGMP-specific 3′,5′-cyclic nucleotide phosphodiesterase”, Gene, 1998, 216, 139-147.
as §1, §2, §3

| IC50 [1] | IC50 (PDE5 (human recombinant)) | PDE4B mean pIC50 [1] | SMILES |
| --- | --- | --- | --- |
| 0.02 nM | 20 µM |  | COc1cccc(Nc2c(C(N)=O)cnc3c(C)cc(S(=O)(=O)c4cncc(C(=O)N(C)C)c4)cc23)c1 [Example 546, 6-({5-[(dimethylamino)carbonyl]-3-pyridinyl}sulfonyl)-8-methyl-4-{[3-(methyloxy)phenyl]amino}3-quinolinecarboxamide hydrochloride] |
| 0.00398 nM |  |  | Cc1cc(S(=O)(=O)c2cccc(C(=O)N(C)C)c2)cc2c(Nc3cccc(C#N)c3)c(C(N)=O)cnc12 [Example 408, 4-[(3-cyanophenyl)amino]-6-({3-[(dimethylamino)carbonyl]phenyl}sulfonyl)-8-methyl-3-quinolinecarboxamide] |
| 0.0316 nM | > 25.1 µM |  | Cc1cc(S(C)(=O)=O)cc2c(Nc3cccc4c3CCO4)c(C(N)=O)cnc12 [Example 307, 4-(2,3-dihydro-1-benzofuran-4-ylamino)-8-methyl-6-(methylsulfonyl)-3-quinolinecarboxamide] |
| 0.0794 nM | > 12.6 µM |  | Cc1cc(S(C)(=O)=O)cc2c(Nc3ccc4cnn(C)c4c3)c(C(N)=O)cnc12 [Example 309, 8-methyl-4-[(1-methyl-1H-indazol-6-yl)amino]-6-(methylsulfonyl)-3-quinolinecarboxamide] |
| 20 nM | > 31.6 µM |  | CN(C)c1cccc(Nc2c(C(N)=O)cnc3ccc(S(=O)(=O)C4CCCC4)cc23)c1 [Example 92] |
|  | 15.8 µM |  | COc1cccc(Nc2c(C(N)=O)cnc3ccc(S(C)(=O)=O)cc23)c1 [Example 27, 4-{[3-(methyloxy)phenyl]amino}-6-(methylsulfonyl)-3-quinolinecarboxamide] |
| 0.00398 nM | > 0.1 µM |  | COc1cccc(Nc2c(C(N)=O)cnc3c(C)cc(S(=O)(=O)c4ccc(OC)c(OC)c4)cc23)c1 [Example 380, 6-{[3,4-bis(methyloxy)phenyl]sulfonyl}-8-methyl-4-{[3-(methyloxy)phenyl]amino}-3-quinolinecarboxamide] |
| 0.01 nM | > 10 µM |  | COc1cccc(Nc2c(C(N)=O)cnc3ccc(S(=O)(=O)c4cccc(C(=O)N(C)C)c4)cc23)c1 [Example 400, 6-({3-[(dimethylamino)carbonyl]phenyl}sulfonyl)-4-{[3-(methyloxy)phenyl]amino}-3-quinolinecarboxamide] |
| 1.26 nM | > 10 µM |  | Cc1cc(S(C)(=O)=O)cc2c(Nc3cc(F)cc(F)c3)c(C(N)=O)cnc12 [Example 502, 4-[(3,5-difluorophenyl)amino]-8-methyl-6-(methylsulfonyl)-3-quinolinecarboxamide] |
| 0.00501 nM | 6.31 µM |  | COc1ccc(S(=O)(=O)c2cc(C)c3ncc(C(N)=O)c(Nc4cccc(OC)c4)c3c2)cc1 [Example 265, 8-methyl-4-{[3-(methyloxy)phenyl]amino}-6-{[4-(methyloxy)phenyl]sulfonyl}-3-quinolinecarboxamide] |
| 0.00501 nM | > 31.6 µM |  | Cc1cc(S(=O)(=O)C2CCN(C(=O)c3ccco3)CC2)cc2c(Nc3cccc4c3CCO4)c(C(N)=O)cnc12 [Example 446, 4-(2,3-dihydro-1-benzofuran-4-ylamino)-6-{[1-(2-furanylcarbonyl)-4-piperidinyl]sulfonyl}-8-methyl-3-quinolinecarboxamide] |
| 0.01 nM | > 3.16 µM |  | Cc1cc(S(=O)(=O)CCNS(C)(=O)=O)cc2c(Nc3cccc4c3CCO4)c(C(N)=O)cnc12 [Example 457, 4-(2,3-dihydro-1-benzofuran-4-ylamino)-8-methyl-6-({2-[(methylsulfonyl)amino]ethyl}sulfonyl)-3-quinolinecarboxamide] |
| 0.316 nM | 7.94 µM |  | Cc1cccc(Nc2c(C(N)=O)cnc3c(Cl)cc(S(C)(=O)=O)cc23)c1 [Example 369, 8-chloro-4-[(3-methylphenyl)amino]-6-(methylsulfonyl)-3-quinolinecarboxamide] |
|  | > 31.6 µM | 9.4 | Cc1cc(S(C)(=O)=O)cc2c(Nc3cccc(C#N)c3)c(C(N)=O)cnc12 [Example 312, 4-[(3-cyanophenyl)amino]-8-methyl-6-(methylsulfonyl)-3-quinolinecarboxamide] |

| SMILES | IC50 [1] | IC50 (PDE5 (human recombinant)) | PDE4B mean pIC50 [1] |
| --- | --- | --- | --- |
| COc1cccc(Nc2c(C(N)=O)cnc3c(C)cc(S(=O)(=O)c4cccc(C(=O)N(C)C)c4)cc23)c1 [Example 399, 6-({3-[(dimethylamino)carbonyl]phenyl}sulfonyl)-8-methyl-4-{[3-(methyloxy)phenyl]amino}-3-quinolinecarboxamide] | < 0.00251 nM | 2.51 µM |  |
